# Patent US6723715B1, “14, 15-cyclopropanosteroids of the 19-norandrostane series, method for producing said compounds and pharmaceutical preparation containing said compounds” (Schering AG, priority 1999, dated 2004)
# How the values were obtained:
# [1] = molecular target: T1, androgen receptor (Homo sapiens, UniProt P10275); assay: binding to the androgen receptor relative to R 1881; details: R 1881=100%
# T1 sequence (P10275 1-920): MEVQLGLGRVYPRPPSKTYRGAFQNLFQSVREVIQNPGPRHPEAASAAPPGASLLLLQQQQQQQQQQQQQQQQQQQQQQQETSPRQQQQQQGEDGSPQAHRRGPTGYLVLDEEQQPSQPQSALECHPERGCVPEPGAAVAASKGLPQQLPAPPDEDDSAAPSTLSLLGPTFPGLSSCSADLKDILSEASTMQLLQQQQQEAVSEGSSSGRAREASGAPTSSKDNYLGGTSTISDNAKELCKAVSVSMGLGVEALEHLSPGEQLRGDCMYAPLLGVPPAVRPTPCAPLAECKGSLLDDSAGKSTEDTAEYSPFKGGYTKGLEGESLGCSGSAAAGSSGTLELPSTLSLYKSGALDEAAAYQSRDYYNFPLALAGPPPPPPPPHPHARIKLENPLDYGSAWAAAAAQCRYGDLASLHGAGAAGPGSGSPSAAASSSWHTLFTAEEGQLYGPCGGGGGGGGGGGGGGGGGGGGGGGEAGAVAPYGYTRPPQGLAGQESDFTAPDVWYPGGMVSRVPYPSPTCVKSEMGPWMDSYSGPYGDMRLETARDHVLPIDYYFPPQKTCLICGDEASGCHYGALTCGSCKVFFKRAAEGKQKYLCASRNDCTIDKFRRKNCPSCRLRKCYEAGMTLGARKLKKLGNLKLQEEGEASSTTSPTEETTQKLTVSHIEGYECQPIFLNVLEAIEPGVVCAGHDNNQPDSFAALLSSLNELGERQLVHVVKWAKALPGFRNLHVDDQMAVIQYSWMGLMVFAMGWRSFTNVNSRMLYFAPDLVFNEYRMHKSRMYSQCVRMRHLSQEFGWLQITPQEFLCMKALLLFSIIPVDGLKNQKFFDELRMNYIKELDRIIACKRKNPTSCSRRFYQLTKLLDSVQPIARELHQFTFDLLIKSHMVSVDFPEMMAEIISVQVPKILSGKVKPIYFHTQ
# [2] = molecular target: T2, progesterone receptor (Homo sapiens, UniProt P06401); assay: binding to the progesterone receptor relative to progesterone; details: progesterone=100%
# T2 sequence (P06401 1-933): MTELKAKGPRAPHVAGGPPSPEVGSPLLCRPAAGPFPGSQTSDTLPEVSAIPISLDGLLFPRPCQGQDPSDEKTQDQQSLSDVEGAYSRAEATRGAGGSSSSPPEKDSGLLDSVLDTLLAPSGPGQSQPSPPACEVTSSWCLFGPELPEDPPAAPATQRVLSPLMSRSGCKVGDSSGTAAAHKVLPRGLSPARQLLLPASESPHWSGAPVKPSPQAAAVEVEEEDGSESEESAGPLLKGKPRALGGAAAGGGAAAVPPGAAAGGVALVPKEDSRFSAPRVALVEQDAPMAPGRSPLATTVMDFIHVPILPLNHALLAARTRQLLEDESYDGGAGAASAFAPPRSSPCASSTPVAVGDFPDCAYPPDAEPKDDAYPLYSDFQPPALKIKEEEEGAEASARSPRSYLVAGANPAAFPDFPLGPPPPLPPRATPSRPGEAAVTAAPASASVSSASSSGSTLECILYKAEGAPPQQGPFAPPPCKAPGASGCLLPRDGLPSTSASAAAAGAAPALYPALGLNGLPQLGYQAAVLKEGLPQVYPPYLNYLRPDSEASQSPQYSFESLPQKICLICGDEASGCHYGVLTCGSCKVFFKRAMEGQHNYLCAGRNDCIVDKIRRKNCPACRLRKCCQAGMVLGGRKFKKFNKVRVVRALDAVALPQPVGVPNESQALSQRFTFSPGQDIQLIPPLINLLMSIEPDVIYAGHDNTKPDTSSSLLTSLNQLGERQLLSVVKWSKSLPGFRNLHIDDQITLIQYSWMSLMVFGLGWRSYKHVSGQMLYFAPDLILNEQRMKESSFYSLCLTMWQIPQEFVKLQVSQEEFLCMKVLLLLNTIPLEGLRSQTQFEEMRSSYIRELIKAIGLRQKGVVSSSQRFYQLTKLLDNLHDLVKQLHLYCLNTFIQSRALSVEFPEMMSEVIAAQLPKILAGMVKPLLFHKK
SMILES,binds to the extent of % to the androgen receptor [1],binds to the extent of % to the progesterone receptor [2]
"C[C@]12CC[C@H]3[C@@H](CCC4=C(Cl)C(=O)CC[C@@H]43)[C@@]13C[C@H]3C[C@@H]2O [4-Chloro-17β-hydroxy-14α,15α-methylene-estr-4-ene-3-one]",98%,5.5%
"C[C@]12C=CC3=C4CCC(=O)C=C4CC[C@H]3[C@@]13C[C@H]3C[C@@H]2O [17β-Hydroxy-14α,15α-methylene-estr-4,9,11-triene-3-one]",58%,36%
